Experimental data reported in US20170144969A1, “ANT[…], METHOD FOR PRODUCTION AND USES THEREOF” (priority 2014, published 2017).

What was measured:
[1] = system: S. aureus (MTCC 737); test: Minimum Inhibitory Concentration, micro-dilution broth; type: cell-based, Staphylococcus aureus; settings: 24 h, 37° C.
[2] = system: Enterococcus faecium (ATCC 19634); test: as above; type: cell-based; settings: 24 h, 37° C.; read-out: Minimum Inhibitory Concentration E. faceium
[3] = system: E. coli (MTCC 443); test: as above; type: cell-based; settings: 24 h, 37° C.
[4] = system: MRSA (ATCC 33591); test: as above; type: cell-based, methicillin-resistant S. aureus; settings: 24 h, 37° C.
[5] = system: vancomycin resistant Enterococcus faecium (VRE) (ATCC 51559); test: as above; type: cell-based; settings: 24 h, 37° C.
[6] = system: Klebsiella pneumoniae (ATCC 700603); test: as above; type: cell-based; settings: 24 h, 37° C.
[7] = system: human Red Blood Cells; test: Haemolytic activity; settings: for HC50: human RBCs, 1 h at 37° C.

Row | Compound | MIC [1] [µM] | MIC [2] [µM] | MIC [3] [µM] | Minimum Inhibitory Concentration MRSA [4] [µM] | MIC [5] [µM] | Minimum Inhibitory Concentration K. pneumonie [6] [µM] | HC50 ([7]; Table 3) | HC50 ([7]; Table 6) [µM] | hemolysis ([7]; at 1000 µM concentration)
1 | CCCCCCCCCCCCCC(=O)N(CCCNC(=O)[C@@H](N)CCCCN)CCCNC(=O)[C@@H](N)CCCCN.O=C(O)C(F)(F)F.O=C(O)C(F)(F)F [Compound 11, N,N-bis-[{3-(^LLys)amino}propyl]tetradecanamide bis(trifluoroacetate)] | 7.8 | 2 | 5.9 | 14 | 1.5 | 9.3 | 588 |  | 
2 | CCCCCCCCCCCCCC(=O)N(CCCNC(=O)[C@@H](N)[C@@H](C)CC)CCCNC(=O)[C@@H](N)[C@@H](C)CC.O=C(O)C(F)(F)F.O=C(O)C(F)(F)F [Compound 52, N,N-bis-[{3-(^LIle)amido}propyl]tetradecanamide bis(trifluoroacetate)] | 3 | 4 | 5 | 2.9 | 2.6 | 300 |  | 64 | 
3 | CCCCCCCCCCCCCC(=O)N(CCCNC(=O)[C@@H](N)Cc1ccccc1)CCCNC(=O)[C@@H](N)Cc1ccccc1.O=C(O)C(F)(F)F.O=C(O)C(F)(F)F [Compound 3, N,N-bis-[{3-(^LPhe)amino}propyl]tetradecanamide bis(trifluoroacetate)] | 7 | 5.2 | 16 | 4.8 | 2.8 | 18 | 144 |  | 
4 | CCCCCCCCCC(=O)N(CCCNC(=O)[C@@H](N)Cc1ccccc1)CCCNC(=O)[C@@H](N)Cc1ccccc1.O=C(O)C(F)(F)F.O=C(O)C(F)(F)F [Compound 1, N,N-bis-[{3-(^LPhe)amino}propyl]decanamide bis(trifluoroacetate)] | 19 | 36 | 24 | 25 | 17 | 70 | 232 |  | 
5 | CCCCCCCCCCCCCCCC(=O)N(CCCNC(=O)[C@@H](N)C(C)C)CCCNC(=O)[C@@H](N)C(C)C.O=C(O)C(F)(F)F.O=C(O)C(F)(F)F [Compound 50, N,N-bis-[{3-(^LVal)amido}propyl]hexadecanamide bis(trifluoroacetate)] | 2.7 | 1.7 | 10 | 1.9 | 1.4 | >314 |  | 86 | 
6 | CCCCCCCCCCCC(=O)N(CCCNC(=O)[C@@H](N)[C@@H](C)CC)CCCNC(=O)[C@@H](N)[C@@H](C)CC.O=C(O)C(F)(F)F.O=C(O)C(F)(F)F [Compound 51, N,N-bis-[{3-(^LIle)amido}propyl]dodecanamide bis(trifluoroacetate)] | 8 | 8 | 11 | 5.7 | 11.3 | 28 |  | 95 | 
7 | CCCCCCCCCCCC(=O)N(CCCNC(=O)[C@@H](N)C(C)C)CCCNC(=O)[C@@H](N)C(C)C.O=C(O)C(F)(F)F.O=C(O)C(F)(F)F [Compound 48, N,N-bis-[{3-(Val)amido}propyl]dodecanamide bis(trifluoroacetate)] | 28 | 25 | 18 | 40 | 25 | 58 |  | 264 | 
8 | CCCCCCCCCCCC(=O)N(CCCNC(=O)CN)CCCNC(=O)CN.O=C(O)C(F)(F)F.O=C(O)C(F)(F)F [Compound 42, N,N-bis-[{3-(Gly)amido}propyl]dodecanamide bis(trifluoroacetate)] | 67 | 86 | 340 | 61 | 112 | >340 |  | 400 | 
9 | CCCCCCCCCCCCCC(=O)N(CCCNC(=O)[C@@H](N)C(C)C)CCCNC(=O)[C@@H](N)C(C)C.O=C(O)C(F)(F)F.O=C(O)C(F)(F)F [Compound 49, N,N-bis-[{3-(^LVal)amido}propyl]tetradecanamide bis(trifluoroacetate)] | 4 | 3.6 | 7 | 3.4 | 4 | 7.3 |  | 134 | 
10 | CCCCCCCCCCCCCC(=O)N(CCCNC(=O)[C@@H]1CCCN1)CCCNC(=O)[C@@H]1CCCN1.O=C(O)C(F)(F)F.O=C(O)C(F)(F)F [Compound 58, N,N-bis-[{3-(^LPro)amido}propyl]tetradecanamide bis(trifluoroacetate)] | 11 | 13 | 12 | 15 | 18 | 135 |  | 216 | 
11 | CCCCCCCCCCCCCCCC(=O)N(CCCNC(=O)[C@@H](N)Cc1ccccc1)CCCNC(=O)[C@@H](N)Cc1ccccc1.O=C(O)C(F)(F)F.O=C(O)C(F)(F)F [Compound 4, N,N-bis-[{3-(^LPhe)amino}propyl]hexadecanamide bis(trifluoroacetate)] | 10 | 8.5 | 225 | 5.2 | 3 | 70 | 83 |  | 
12 | CCCCCCCCCC(=O)N(CCCNC(=O)[C@@H](N)CCCCN)CCCNC(=O)[C@@H](N)CCCCN.O=C(O)C(F)(F)F.O=C(O)C(F)(F)F [Compound 9, N,N-bis-[{3-(^LLys)amino}propyl]decanamide bis(trifluoroacetate)] | 53 | 60 | 40 | 65 | 58 | 98 | >1000 |  | did not show any hemolytic
13 | CCCCCCCCCCCCCCCC(=O)N(CCCNC(=O)CN)CCCNC(=O)CN.O=C(O)C(F)(F)F.O=C(O)C(F)(F)F [Compound 44, N,N-bis-[{3-(Gly)amido}propyl]hexadecanamide bis(trifluoroacetate)] | 6.5 | 4 | 5.9 | 10 | 3.3 | >365 |  | 90 | 
14 | CCCCCCCCCCCCCC(=O)N(CCCNC(=O)[C@H](C)N)CCCNC(=O)[C@H](C)N.O=C(O)C(F)(F)F.O=C(O)C(F)(F)F [Compound 46, N,N-bis-[{3-(^LAla)amido}propyl]tetradecanamide bis(trifluoroacetate)] | 19 | 9 | 17 | 17 | 7.6 | >360 |  | 93 | 
15 | CCCCCCCCCCCCCCCC(=O)N(CCCNC(=O)[C@H](C)N)CCCNC(=O)[C@H](C)N.O=C(O)C(F)(F)F.O=C(O)C(F)(F)F [Compound 47, N,N-bis-[{3-(^LAla)amido}propyl]hexadecanamide bis(trifluoroacetate)] | 5.6 | 3 | 4 | 6 | 3 | 12 |  | 68 | 
16 | CCCCCCCCCCCCCCCC(=O)N(CCCNC(=O)[C@@H]1CCCN1)CCCNC(=O)[C@@H]1CCCN1.O=C(O)C(F)(F)F.O=C(O)C(F)(F)F [Compound 59, N,N-bis-[{3-(^LPro)amido}propyl]hexadecanamide bis(trifluoroacetate)] | 2.8 | 4 | 4.4 | 7.2 | 2.7 | 12 |  | 76 | 
17 | CCCCCCCCCCCCCCCCCC(=O)N(CCCNC(=O)[C@@H](N)Cc1ccccc1)CCCNC(=O)[C@@H](N)Cc1ccccc1.O=C(O)C(F)(F)F.O=C(O)C(F)(F)F [Compound 5, N,N-bis-[{3-(^LPhe)amino}propyl]octadecanamide bis(trifluoroacetate)] | 12 | 11 | 270 | 5.6 | 3.2 | 95 | 71 |  | 
18 | CCCCCCCCCCCC(=O)N(CCCNC(=O)[C@@H](N)CC(C)C)CCCNC(=O)[C@@H](N)CC(C)C.O=C(O)C(F)(F)F.O=C(O)C(F)(F)F [Compound 54, N,N-bis-[{3-(^LLeu)amido}propyl]dodecanamide bis(trifluoroacetate)] | 5.8 | 8.6 | 8.8 | 8.9 | 5 | 18 |  | 305 | 
19 | CCCCCCCCCCCC(=O)N(CCCNC(=O)[C@H](C)N)CCCNC(=O)[C@H](C)N.O=C(O)C(F)(F)F.O=C(O)C(F)(F)F [Compound 45, N,N-bis-[{3-(^LAla)amido}propyl]dodecanamide bis(trifluoroacetate)] | 95 | 73 | 282 | 133 | 82 | >365 |  | 562 | 
